The record followed here is US8153809B2, “Dihydropyridone ureas as P2X7 modulators” (Roche Palo Alto LLC, priority 2008, dated 2012).

SMILES strings stand for the structures.

For the assay, the target named is T1, P2X7 (UniProt Q99572).
T1 sequence (Q99572 1-595): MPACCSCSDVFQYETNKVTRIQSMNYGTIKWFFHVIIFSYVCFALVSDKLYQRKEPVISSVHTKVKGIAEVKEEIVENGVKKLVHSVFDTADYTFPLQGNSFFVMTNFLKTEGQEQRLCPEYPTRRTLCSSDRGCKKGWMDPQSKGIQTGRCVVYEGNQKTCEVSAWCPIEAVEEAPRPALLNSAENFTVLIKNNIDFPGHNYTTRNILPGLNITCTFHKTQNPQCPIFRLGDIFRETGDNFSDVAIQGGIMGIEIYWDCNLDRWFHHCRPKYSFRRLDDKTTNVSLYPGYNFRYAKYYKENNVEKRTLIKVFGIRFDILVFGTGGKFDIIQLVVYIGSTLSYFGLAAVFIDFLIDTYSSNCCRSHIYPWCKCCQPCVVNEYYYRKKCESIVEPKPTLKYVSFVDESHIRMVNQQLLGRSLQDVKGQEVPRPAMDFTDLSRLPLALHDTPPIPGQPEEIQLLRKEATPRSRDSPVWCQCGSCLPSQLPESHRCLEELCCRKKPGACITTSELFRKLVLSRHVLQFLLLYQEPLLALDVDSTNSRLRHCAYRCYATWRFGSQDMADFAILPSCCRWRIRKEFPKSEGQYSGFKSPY
In words: pIC50 values for P2X7 (Table 1). The format is cell-based. The gist of the method: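 Fluo-3-loaded 1321N1 cells expressing human P2X7 or HEK293 cells expressing rat P2X7, preincubated 20 min at room temperature with antagonist in HBSS/Hepes/probenecid buffer with 2 mM CaCl2. BzATP agonist at 100 μM final (human) or 5 μM final (rat); fluorescence read 5 min, peak normalized to 5 μM ionomycin response.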
`Cc1cc(Cl)c(CN2CCOCC2)cc1NC(=O)N1C=CC(=O)C[C@H]1c1ccc(F)cc1` [Compound 129, (S)-2-(4-Fluoro-phenyl)-4-oxo-3,4-dihydro-2H-pyridine-1-carboxylic acid (4-chloro-2-methyl-5-morpholin-4-ylmethyl-phenyl)-amide]: the pIC50 is 6.945.
Take `Cc1cccc(NC(=O)N2C=CC(=O)C[C@H]2c2ccc(F)cc2)c1` [Compound 130, (S)-2-(4-Fluoro-phenyl)-4-oxo-3,4-dihydro-2H-pyridine-1-carboxylic acid m-tolylamide]: the negative logarithm of the IC50 (pIC50) came to 7.12.
Regarding `Cc1ccccc1NC(=O)N1C=CC(=O)C[C@H]1c1ccc(F)cc1` [Compound 131, (S)-2-(4-Fluoro-phenyl)-4-oxo-3,4-dihydro-2H-pyridine-1-carbxoylic acid o-tolylamide], the pIC50 came out at 7.53.
As for `COc1cccc(NC(=O)N2C=CC(=O)C[C@H]2c2ccc(F)cc2)c1C` [Compound 132, (S)-2-(4-Fluoro-phenyl)-4-oxo-3,4-dihydro-2H-pyridine-1-carboxylic acid (3-methoxy-2-methyl-phenyl)-amide], the figure is 8.57; as for `Cc1cc(Cl)c(CCO)cc1NC(=O)N1C=CC(=O)C[C@H]1c1ccc(F)cc1` [Compound 133, (S)-2-(4-Fluoro-phenyl)-4-oxo-3,4-dihydro-2H-pyridine-1-carboxylic acid [4-chloro-5-(2-hydroxy-ethyl)-2-methyl-phenyl]-amide], 8.06.
The molecule `O=C1C=CN(C(=O)Nc2ccc3c(c2)NC(=O)C3)[C@H](c2ccc(F)cc2)C1` [Compound 134, (S)-2-(4-Fluoro-phenyl)-4-oxo-3,4-dihydro-2H-pyridine-1-carboxylic acid (2-oxo-2,3-dihydro-1H-indol-6-yl)-amide] gave a pIC50 of 5.385.
With `O=C1C=CN(C(=O)Nc2cc3c(cc2Br)OCCO3)[C@H](c2ccc(F)cc2)C1` [Compound 136, (S)-2-(4-Fluoro-phenyl)-4-oxo-3,4-dihydro-2H-pyridine-1-carboxylic acid (7-bromo-2,3-dihydro-benzo[1,4]dioxin-6-yl)-amide], the negative logarithm of the IC50 (pIC50) was determined as 8.095.
As for `Cc1ccc(NC(=O)N2C=CC(=O)C[C@H]2c2ccc(F)cc2)cc1` [Compound 137, (S)-2-(4-Fluoro-phenyl)-4-oxo-3,4-dihydro-2H-pyridine-1-carboxylic acid p-tolylamide], the figure is 6.57.
For `Cc1c(Cl)cccc1NC(=O)N1C=CC(=O)C[C@H]1c1ccc(F)cc1` [Compound 138, (S)-2-(4-Fluoro-phenyl)-4-oxo-3,4-dihydro-2H-pyridine-1-carboxylic acid (3-chloro-2-methyl-phenyl)-amide] the value was 8.34; for `Cc1c(CO)cccc1NC(=O)N1C=CC(=O)C[C@H]1c1ccc(F)cc1` [Compound 139, (S)-2-(4-Fluoro-phenyl)-4-oxo-3,4-dihydro-2H-pyridine-1-carboxylic acid (3-hydroxymethyl-2-methyl-phenyl)-amide], 7.79; for `Cc1cc2ccn(C)c2cc1NC(=O)N1C=CC(=O)C[C@H]1c1ccc(F)cc1` [Compound 140, (S)-2-(4-Fluoro-phenyl)-4-oxo-3,4-dihydro-2H-pyridine-1-carboxylic acid (1,5-dimethyl-1H-indol-6-yl)-amide], 8.565.
Turning to `CNC(=O)c1cccc(NC(=O)N2C=CC(=O)C[C@H]2c2ccc(F)cc2)c1C` [Compound 141, (S)-2-(4-Fluoro-phenyl)-4-oxo-3,4-dihydro-2H-pyridine-1-carboxylic acid (2-methyl-3-methylcarbamoyl-phenyl)-amide], the pIC50 turned out to be 6.185.
With `Cc1cc(Cl)c(OC2CCNCC2)cc1NC(=O)N1C=CC(=O)C[C@H]1c1ccc(F)cc1` [Compound 142, (S)-2-(4-Fluoro-phenyl)-4-oxo-3,4-dihydro-2H-pyridine-1-carboxylic acid [4-chloro-2-methyl-5-(piperidin-4-yloxy)-phenyl]-amide], the pIC50 amounted to 6.71.
As for `Cc1cc2c(cc1NC(=O)N1C=CC(=O)C[C@H]1c1ccc(F)cc1)OCCN2C` [Compound 143, (S)-2-(4-Fluoro-phenyl)-4-oxo-3,4-dihydro-2H-pyridine-1-carboxylic acid (4,6-dimethyl-3,4-dihydro-2H-benzo[1,4]oxazin-7-yl)-amide], the negative-log IC50 (pIC50) turned out to be 7.825.
Consider `Cc1c(CC(=O)OC(C)(C)C)cccc1NC(=O)N1C=CC(=O)C[C@H]1c1ccc(F)cc1` [Compound 144, (3-{[(S)-2-(4-Fluoro-phenyl)-4-oxo-3,4-dihydro-2H-pyridine-1-carbonyl]amino}-2-methyl-phenyl)-acetic acid tert-butyl ester], for which the pIC50 was found to be 6.215.
In the case of `Cc1nn(C)c2cc(NC(=O)N3C=CC(=O)C[C@H]3c3ccc(F)cc3)ccc12` [Compound 145, (S)-2-(4-Fluoro-phenyl)-4-oxo-3,4-dihydro-2H-pyridine-1-carboxylic acid (1,3-dimethyl-1H-indazol-6-yl)-amide], the pIC50 is reported as 6.535.
The molecule `Cc1c2ccc(NC(=O)N3C=CC(=O)C[C@H]3c3ccc(F)cc3)cc2nn1C` [Compound 146, (S)-2-(4-Fluoro-phenyl)-4-oxo-3,4-dihydro-2H-pyridine-1-carboxylic acid (2,3-dimethyl-2H-indazol-6-yl)-amide] gave a pIC50 of 5.615.
As for `Cn1cc2ccc(NC(=O)N3C=CC(=O)C[C@H]3c3cccc(F)c3)cc2n1` [Compound 147, (S)-2-(3-Fluoro-phenyl)-4-oxo-3,4-dihydro-2H-pyridine-1-carbxoylic acid (2-methyl-2H-indazol-6-yl)-amide], the pIC50 stood at 5.505.
`Cn1cc2cc(NC(=O)N3C=CC(=O)C[C@H]3c3ccc(F)cc3)ccc2n1` [Compound 148, (S)-2-(4-Fluoro-phenyl)-4-oxo-3,4-dihydro-2H-pyridine-1-carboxylic acid (2-methyl-2H-indazol-5-yl)-amide] had a pIC50 of 6.87.
Molecule `CCc1c(NC(=O)N2C=CC(=O)C[C@H]2c2ccc(F)cc2)ccc2ncccc12` [Compound 149, (S)-2-(4-Fluoro-phenyl)-4-oxo-3,4-dihydro-2H-pyridine-1-carboxylic acid (5-ethyl-quinolin-6-yl)-amide] gave a pIC50 of 8.445.
On to `Cc1c(CCO)cccc1NC(=O)N1C=CC(=O)C[C@H]1c1ccc(F)cc1` [Compound 150, (S)-2-(4-Fluoro-phenyl)-4-oxo-3,4-dihydro-2H-pyridine-1-carboxylic acid [3-(2-hydroxy-ethyl)-2-methyl-phenyl]-amide], for which the pIC50 was found to be 7.835.
As to `Cc1c2ccc(NC(=O)N3C=CC(=O)C[C@H]3c3ccc(F)cc3)c(Br)c2nn1C` [Compound 151, (S)-2-(4-Fluoro-phenyl)-4-oxo-3,4-dihydro-2H-pyridine-1-carboxylic acid (7-bromo-2,3-dimethyl-2H-indazol-6-yl)-amide], the pIC50 is on record as 5.975.
As for `O=C1C=CN(C(=O)Nc2cccc3c2CCO3)[C@H](c2ccc(F)cc2)C1` [Compound 152, (S)-2-(4-Fluoro-phenyl)-4-oxo-3,4-dihydro-2H-pyridine-1-carboxylic acid (2,3-dihydro-benzofuran-4-yl)-amide], the pIC50 amounted to 7.355.
In the case of `CCc1cc2ncccc2cc1NC(=O)N1C=CC(=O)C[C@H]1c1ccc(F)cc1` [Compound 153, (S)-2-(4-Fluoro-phenyl)-4-oxo-3,4-dihydro-2H-pyridine-1-carboxylic acid (7-ethyl-quinolin-6-yl)-amide], the pIC50 stood at 7.85.
Regarding `O=C1C=CN(C(=O)Nc2cccc3ncccc23)[C@H](c2ccc(F)cc2)C1` [Compound 154, (S)-2-(4-Fluoro-phenyl)-4-oxo-3,4-dihydro-2H-pyridine-1-carboxylic acid quinolin-5-ylamide], the negative-log IC50 (pIC50) is recorded as 8.64.
Consider `Cc1cc(F)c(F)cc1NC(=O)N1C=CC(=O)C[C@H]1c1ccc(F)cc1` [Compound 155, (S)-2-(4-Fluoro-phenyl)-4-oxo-3,4-dihydro-2H-pyridine-1-carboxylic acid (4,5-difluoro-2-methyl-phenyl)-amide], for which the pIC50 was found to be 7.12.
The molecule `Cc1cc2ccn(CCO)c2cc1NC(=O)N1C=CC(=O)C[C@H]1c1ccc(F)cc1` [Compound 156, (S)-2-(4-Fluoro-phenyl)-4-oxo-3,4-dihydro-2H-pyridine-1-carboxylic acid [1-(2-hydroxy-ethyl)-5-methyl-1H-indol-6-yl]-amide] yielded a pIC50 of 8.155.
For `O=C1C=CN(C(=O)Nc2cc(F)c(F)cc2Br)C(c2ccc(F)cc2)C1` (centres unmarked) [Compound 157, 2-(4-Fluoro-phenyl)-4-oxo-3,4-dihydro-2H-pyridine-1-carboxylic acid (2-bromo-4,5-difluoro-phenyl)-amide] the value was 6.43; for `Cc1ccc(NC(=O)N2C=CC(=O)C[C@H]2c2ccc(F)cc2)cc1C` [Compound 158, (S)-2-(4-Fluoro-phenyl)-4-oxo-3,4-dihydro-2H-pyridine-1-carboxylic acid (3,4-dimethyl-phenyl)-amide], 7.01.
